The text below walks through data of patent US6395787B1, “Ocular hypotensive lipids” (Allergan Sales, Inc., priority 2000, dated 2002).

For one experiment, the target named is human FP receptor (Homo sapiens, UniProt P43088). The experiment is described as follows: Ca2+ signal in CRL 1497 cells. The note with it: CRL 1497 cells, n = 4. Also on record: endogenous in cells; host or cells: CRL 1497 human dermal fibroblasts; Δ[Ca^2+]i mean χ ± SEM: unit not given here. Format: cell-based. On the procedure: (§1) Human CRL 1497 cells were plated in culture flasks and fed Dulbecco's modified Eagle's medium (DMEM) containing 10% fetal calf serum, 2 mM 1-glutamine, and 0.05 mg/ml gentacin (all purchased from Gibco, Grand Island, N.Y.). Cell cultures were maintained in a humidified atmosphere of 95% air, 5% CO2 and grown to confluency. Cells were removed from the culture flasks by approximately 1 min treatment with trypsin 0.05%/0.53 mM EDTA in Hanks Balanced Salt Solution (HBSS, Gibco, Grand Island, N.Y.) at 37° C. Proteolytic activity was arrested by adding 5 ml of 10% fetal bovine serum in DMEM. The cells were consecutively washed in Hank's BSS and medium containing 140 mM NaCl, […], 1 mM MgCl2, 1.5 mM CaCl2, 10 mM HEPES: TRIS, 5 mM glucose, 5 mM Na pyruvate, 0.1% bovine serum albumin at pH 7.4: Centrifugation for the washes was performed for 15 minutes at 200 g at room temperature. Cells were counted, resuspended in the above medium and incubated with 2×10^−6 M Fura 2/acetoxymethyl ester in a shaking water bath for 30 minutes at 37° C. The cells were subsequently washed in medium as above and resuspended at a concentration of 2×10^6 cells ml^−1. Aliquots of 0.5 ml cell suspension were then added to autocap microtubes to provide 10^6 cells per experimental determination of intracellular free Ca^2+ concentration ([Ca^2+]i).
(§2) Fluorescence was measured in a Perkin-Elmer LS-5 fluorescence spectrophotometer at excitation and emission wavelengths of 340 and 492 nm, respectively, with both slits at 10 nm. For each experimental determination 10^6 cells were washed (200×g for 5 min) and suspended in a 2 ml cuvette with buffer containing 120 mM NaCl, 6 mM KCl, 1 mM MgSO4, 1.5 mM CaCl2, 20 mM HEPES, 1 mg ml^−1 glucose and 1 mg ml^−1 Na pyruvate. Stirring was achieved by an overhead-mounted, paddle stirrer with the temperature maintained at 37° C. The cells were lysed with digitonin (10 μl of 100 mg ml^−1 DMSO) to obtain fmax. EGTA (100 mM) and sufficient 10N NaOH to adjust the pH to 8.5 were then successively added to obtain fmin.

The subject of experiment [1] is rabbit jugular vein segment. The experiment is described as follows: Vasorelaxation of histamine precontracted rabbit jugular vein segment. The method, then: Smooth muscle tension of isolated tissues was measured isometrically with force displacement transducers (Grass FT-03) and recorded on Grass Polygraphs (Models 7G and 79E). The organ baths contained Krebs solution maintained at 37° C. and gassed with 95% 02/5% CO2 to give a pH of 7.4. The Krebs solution had the following composition (mM): NaCl, 118.0; KCl, 4.7; KH2PO4, 1.2; CaCl2, 1.9; MgSO4, 1.18; NaHCO3, 25.0; glucose, 11.7; indomethacin, 0.001.
New Zealand albino rabbit of either sex, weighing 2-4 kg, were injected with 1000 U heparin into the marginal ear vein and then sacrificed by CO2 gas. The external jugular veins were cleared of fat and adherent connective tissue and removed. The veins were transected and each ring of 3-4 mm length was suspended between two metal hooks in a jacketed organ bath. The tissues were equilibrated for 1 hr under 0.75 g tension, which was readjusted as the tissues relaxed. Single doses of histamine, 10^−5 M then 2-3×10^−6 M, with washing after each dose, were given to contract the tissue and establish responsiveness. The TP-receptor antagonist SQ29548, (Ogletree et al. (1985) J. Pharmacol. Exp. Ther. 234 435-441) at (10^−6 M), was applied for 5 min and then histamine 2-3×10^−6 M was added to elicit the contractile response. After 30 min of pretreatment with the histamine, the relaxant response was tested by adding cumulative doses of the test compounds with 10^−8 M to 10^−7 M PGE2 at the end of each dose-response curve as a reference. A recovery period of 30-50 min was allowed after wash-out of the tissues. Relaxant activity was calculated as % of the control tone elicited by histamine.

The target of experiment [2] is recombinant feline FP receptor (Felis catus, UniProt A0ABI7XJ69). The experiment is described as follows: Ca2+ signal in HEK-293 cells stably transfected with recombinant feline FP receptor. Format: cell-based, cat. To be noted: HEK-293 cells, recombinant feline FP receptor; read-out: E.C.50, Ca2+ signal. On the procedure:
as §1, §2
HEK-293 cells were grown in DMEM with 10% fetal bovine serum (FBS), 250 μg ml^−1 G418 (Life Technologies) and 200 μg ml^−1 gentamicin or penicillin/streptomycin. […] For transfection, the cells were grown to 50-60% confluency on 10 cm plates. The plasmid pCEP4 incorporating cDNA inserts for the human FP receptor (20 μg) was added to 500 μl of 250 mM CaCl2. HEPES buffered saline×2 (2×HBSS, 280 mM NaCl, 20 mM HEPES acid, 1.5 mM Na2 HPO4, pH 7.05-7.12) was then added dropwise to a […], with continuous vortexing at room temperature. After 30 min, 9 ml DMEM were added to the mixture. The DNA/DMEM/calcium phosphate mixture was then added to the cells, which had been previously rinsed with 10 ml phosphate buffered saline (PBS). The cells were then incubated for 5 h. at 37° C. in humidified 95% air/5% CO2. The calcium phosphate solution was then removed and the cells were treated with 10% glycerol in DMEM for 2 min. The glycerol solution was then replaced by DMEM with 10% fetal bovine serum (FBS). The cells were incubated overnight and the medium was replaced by DMEM/10% FBS containing 250 μg ml^−1 G418 and penicillin/streptomycin. The following day hygromycin B was added to a final concentration of 200 μg ml^−1.
Ten days after transfection, hygromycin B resistant clones were individually selected and transferred to a separate well on a 24 well plate. […]

Another experiment concerns intraocular pressure. To be noted: prior art research of the assignee; cited from earlier work.

Sequence of human FP receptor (P43088 whole entry): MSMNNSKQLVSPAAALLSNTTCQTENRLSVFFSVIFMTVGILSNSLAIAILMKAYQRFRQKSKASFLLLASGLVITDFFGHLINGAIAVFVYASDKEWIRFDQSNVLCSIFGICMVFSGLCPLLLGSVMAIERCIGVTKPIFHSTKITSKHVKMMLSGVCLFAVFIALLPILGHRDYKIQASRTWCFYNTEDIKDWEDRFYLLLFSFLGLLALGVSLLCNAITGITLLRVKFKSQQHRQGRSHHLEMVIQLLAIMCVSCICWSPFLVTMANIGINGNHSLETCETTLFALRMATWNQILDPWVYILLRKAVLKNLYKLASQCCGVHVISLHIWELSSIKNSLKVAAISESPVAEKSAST
Sequence of recombinant feline FP receptor (A0ABI7XJ69 entry or part of it): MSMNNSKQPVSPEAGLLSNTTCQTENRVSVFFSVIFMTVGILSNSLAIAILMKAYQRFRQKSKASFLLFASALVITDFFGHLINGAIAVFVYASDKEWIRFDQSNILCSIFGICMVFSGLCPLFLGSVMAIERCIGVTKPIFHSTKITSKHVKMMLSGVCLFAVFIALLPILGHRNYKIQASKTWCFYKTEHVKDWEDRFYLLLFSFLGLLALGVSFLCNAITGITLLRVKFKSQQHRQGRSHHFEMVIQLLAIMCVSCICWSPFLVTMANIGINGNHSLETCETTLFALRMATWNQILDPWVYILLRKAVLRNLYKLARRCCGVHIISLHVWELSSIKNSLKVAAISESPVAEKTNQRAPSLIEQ

As to `CCCCC[C@H](O)/C=C/[C@@H]1[C@@H](C/C=C\CCCC(=O)O)[C@@H](O)C[C@H]1O` [PGF2α, reference compound], the “Δ[Ca^2+]i mean χ ± SEM” value is 136.7 ± 11.2 on human FP receptor (10^−5 M); 127.4 ± 7.6 on human FP receptor (10^−6 M); 124.1 ± 6.5 on human FP receptor (10^−7 M); 47.7 ± 9.4 at human FP receptor (10^−8 M); 5.6 ± 2.4 on human FP receptor (10^−9 M). Further, the EC50 in experiment [1] (Oryctolagus cuniculus, histamine precontracted, read-out: E.C.50, vasorelaxation of the precontracted rabbit jugular vein segment) was 5.3 nM; in experiment [2], 14 nM. For the same compound, the endothelium dependent vasorelaxation entry in experiment [1] (histamine precontracted rabbit jugular vein segment) is listed as “marked vasorelaxation”.

For `CCNC(=O)CCC/C=C\C[C@@H]1[C@@H](/C=C/[C@@H](O)CCc2ccccc2)[C@H](O)C[C@@H]1O` [prior art compound no. 1], in the experiment with intraocular pressure, the intraocular hypotensive activity entry was “strong intraocular hypotensive activity”.

As to `CCCCCC(/C=C/[C@H]1C(O)CC(O)[C@@H]1C/C=C\CCCC(N)=O)OC` (stereo partly shown) [prior art compound no. 2], the intraocular hypotensive activity entry in the experiment with intraocular pressure is recorded as “strong intraocular hypotensive activity”.
